The values below are quoted from earlier work in patent US6479236B2, “Genotyping the human UDP-glucuronosyltransferase 1 (UGT1) gene” (DNA Sciences Laboratories, Inc., priority 1998, dated 2002).

The target in one data set is T1, UGT1*1 (Homo sapiens, UniProt P22309).
T1 sequence (P22309 26-533): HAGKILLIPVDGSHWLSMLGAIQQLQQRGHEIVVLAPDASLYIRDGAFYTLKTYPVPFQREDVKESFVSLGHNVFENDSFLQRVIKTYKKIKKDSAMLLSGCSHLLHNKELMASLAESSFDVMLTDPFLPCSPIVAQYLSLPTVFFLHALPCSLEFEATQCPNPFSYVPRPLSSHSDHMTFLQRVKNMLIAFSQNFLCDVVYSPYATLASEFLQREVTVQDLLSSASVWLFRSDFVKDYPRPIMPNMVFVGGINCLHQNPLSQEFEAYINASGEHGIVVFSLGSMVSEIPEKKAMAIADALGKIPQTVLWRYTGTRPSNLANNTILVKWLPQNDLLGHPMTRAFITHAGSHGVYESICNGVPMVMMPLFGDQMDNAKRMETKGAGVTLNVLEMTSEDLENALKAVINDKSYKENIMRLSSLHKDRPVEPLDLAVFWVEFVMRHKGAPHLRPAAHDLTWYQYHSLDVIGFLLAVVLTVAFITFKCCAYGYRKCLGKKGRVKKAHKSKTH
The following applies: for Km: substrate of UGT1*1; for binding to UGT1*1 compared with bilirubin: relative to the endogenous substrate bilirubin.

The target in a further data set is T2, UGT1*7 (Homo sapiens, UniProt O60656).
T2 sequence (O60656 26-530): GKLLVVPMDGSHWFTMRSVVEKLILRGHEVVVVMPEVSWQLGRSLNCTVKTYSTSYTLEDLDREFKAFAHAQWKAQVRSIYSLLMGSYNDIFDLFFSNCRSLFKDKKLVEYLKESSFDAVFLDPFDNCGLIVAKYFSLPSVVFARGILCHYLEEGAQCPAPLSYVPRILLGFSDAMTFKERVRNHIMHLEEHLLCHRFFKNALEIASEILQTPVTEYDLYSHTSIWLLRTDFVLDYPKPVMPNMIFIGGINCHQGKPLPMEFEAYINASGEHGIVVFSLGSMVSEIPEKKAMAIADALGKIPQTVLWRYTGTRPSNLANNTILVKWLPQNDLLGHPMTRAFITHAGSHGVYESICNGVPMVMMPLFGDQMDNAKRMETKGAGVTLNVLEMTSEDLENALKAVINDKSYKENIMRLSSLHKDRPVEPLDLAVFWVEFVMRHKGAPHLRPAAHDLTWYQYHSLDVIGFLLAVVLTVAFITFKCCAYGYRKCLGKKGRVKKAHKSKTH
The following applies: substrate of UGT1*7.

The target in another data set is UGT1*6 (Homo sapiens, UniProt P19224). The following applies: substrate of UGT1*6.

As a reminder, the Km is the substrate concentration at which the rate is half of its maximum. `C=CC1=C(C)/C(=C/c2[nH]c(Cc3[nH]c(/C=C4\NC(=O)C(C)=C4C=C)c(C)c3CCC(=O)O)c(CCC(=O)O)c2C)NC1=O` [Bilirubin]: at UGT1*1, the Km was 24 µM.

Take `CC(C)c1cccc(C(C)C)c1O` [Propofol]: the Km at UGT1*7 was 172 µM.

`O=C(O)[C@H]1O[C@H](OP(=O)(O)OP(=O)(O)OC[C@H]2O[C@@H](n3ccc(=O)[nH]c3=O)[C@H](O)[C@@H]2O)[C@H](O)[C@@H](O)[C@@H]1O` [UDPGA]: the Michaelis-Menten constant (Km) at UGT1*1 and at UGT1*7 was 410 µM each time.

As to `CC(=O)Nc1ccc(O)cc1` [Acetaminophen], the results for the Km at UGT1*6 and on UGT1*7 were 2000 µM and 50000 µM, respectively.

With `CCCCCCCCOC(=O)c1cc(O)c(O)c(O)c1` [Octyl gallate], the “binding to UGT1*1 compared with bilirubin” value at UGT1*1 is “more readily binds”. Further, the figures for the Km at UGT1*1 and on UGT1*7 were 162 µM and 158 µM, respectively.

Regarding `Cc1cc(O)c2c(c1)C(=O)c1cc(O)cc(O)c1C2=O` [emodin], the “binding to UGT1*1 compared with bilirubin” value on UGT1*1 is “more readily binds”.
